Reference: US4948782A, “A method of promoting the growth of domestic animals with erythromycin derivative containing composition” (Kitasato Kenkyusho, priority 1987, dated 1990)

Assays:
Type in all cases: cell-based
[1] = test system: Staphylococcus aureus ATCC 6538P; assay: MIC, Staphylococcus aureus ATCC 6538P (SA(1)); details: Staphylococcus aureus, ATCC6538P, Staphylococcus aureus ATCC 6538P; read-out: MIC SA (1)
From the text: (§1) The minimum inhibitory concentrations (MIC: mcg/ml) of the erythromycin derivatives of the present invention and the control erythromycin derivative (*) as the known growth promoting agent on typical test bacteria are shown in the following Tables 1 to 5.
SA(1): Staphylococcus aureus ATCC 6538P

[2] = test system: Klebsiella pneumoniae ATCC 10031; assay: MIC, Klebsiella pneumoniae ATCC 10031 (KP); details: ATCC10031; Klebsiella pneumoniae ATCC 10031; read-out: MIC KP
[3] = test system: Bacillus cereus IFO 3001; assay: MIC, Bacillus cereus IFO 3001 (BC); details: Bacillus cereus, IFO3001, Bacillus cereus IFO 3001; read-out: MIC BC
[4] = test system: Bacillus subtilis; assay: MIC, Bacillus subtilis (BS); details: read-out: MIC BS
[5] = test system: Staphylococcus aureus FDA 209P; assay: MIC, Staphylococcus aureus FDA 209P (SA(2)); details: Staphylococcus aureus, FDA209P, Staphylococcus aureus FDA 209P; read-out: MIC SA (2)
From the text: as §1
SA(2): Staphylococcus aureus FDA 209P

[6] = test system: Escherichia coli NIHJ; assay: MIC, Escherichia coli NIHJ (EC)

Compound | MIC [1] [µg/mL] | MIC [2] [µg/mL] | MIC [3] [µg/mL] | MIC [4] [µg/mL] | MIC [5] [µg/mL] | MIC [6] [µg/mL]
CCC1OC(=O)C(C)C(OC2CC(C)(OC)C(O)C(C)O2)C(C)C(OC2OC(C)CC([N+](C)(C)C)C2OC(C)=O)C2(C)CC(C)=C(O2)C(C)C(O)C1(C)O (stereo not drawn) [Compound 7] | 100 | > 100 | > 100 | > 100 | > 100 | > 100
CCC1OC(=O)C(C)C(OC2CC(C)(OC)C(O)C(C)O2)C(C)C(OC2OC(C)CC(N)C2O)C2(C)CC(C)=C(O2)C(C)C(O)C1(C)O (stereo not drawn) [Compound 9] | > 100 | > 100 | > 100 | > 100 | > 100 | > 100
CCC1OC(=O)C(C)C(OC2CC(C)(OC)C(O)C(C)O2)C(C)C(OC2OC(C)CC(N(C)CC)C2O)C2(C)CC(C)=C(O2)C(C)C(O)C1(C)O (stereo not drawn) [Compound 10] | > 100 | > 100 | > 100 | > 100 | > 100 | > 100
CCCCN(C)C1CC(C)OC(OC2C(C)C(OC3CC(C)(OC)C(O)C(C)O3)C(C)C(=O)OC(CC)C(C)(O)C(O)C(C)C3=C(C)CC2(C)O3)C1O (stereo not drawn) [Compound 11] | > 100 | > 100 | > 100 | > 100 | > 100 | > 100
CCC1OC(=O)C(C)C(OC2CC(C)(OC)C(O)C(C)O2)C(C)C(OC2OC(C)CC([N+](C)(C)CCO)C2O)C2(C)CC(C)=C(O2)C(C)C(O)C1(C)O (stereo not drawn) [Compound 15] | > 100 | > 100 | > 100 | > 100 | > 100 | > 100
C=CC[N+](C)(C)C1CC(C)OC(OC2C(C)C(OC3CC(C)(OC)C(O)C(C)O3)C(C)C(=O)OC(CC)C(C)(O)C(O)C(C)C3=C(C)CC2(C)O3)C1O (stereo not drawn) [Compound 16] | 100 | > 100 | > 100 | > 100 | > 100 | > 100
CCC1OC(=O)C(C)C(OC2CC(C)(OC)C(O)C(C)O2)C(C)C(OC2OC(C)CC([N+](C)(C)Cc3ccccc3)C2O)C2(C)CC(C)=C(O2)C(C)C(O)C1(C)O (stereo not drawn) [Compound 17] | 100 | > 100 | 100 | 50 | 100 | > 100
CCC1OC(=O)C(C)C(OC2CC(C)(OC)C(O)C(C)O2)C(C)C(OC2OC(C)CC([N+](C)(C)CC)C2O)C2(C)CC(C)=C(O2)C(C)C(OS(C)(=O)=O)C1(C)O (stereo not drawn) [Compound 18] | > 100 | > 100 | > 100 | > 100 | > 100 | > 100
CCNC1CC(C)OC(OC2C(C)C(OC3CC(C)(OC)C(O)C(C)O3)C(C)C(=O)OC(CC)C(C)(O)C(O)C(C)C3=C(C)CC2(C)O3)C1O (stereo not drawn) [Compound 21] | > 100 | > 100 | > 100 | > 100 | > 100 | > 100
CCC1OC(=O)C(C)C(OC2CC(C)(OC)C(O)C(C)O2)C(C)C(OC2OC(C)CC(N3CCCCC3)C2O)C2(C)CC(C)=C(O2)C(C)C(O)C1(C)O (stereo not drawn) [Compound 22] | > 100 | > 100 | > 100 | > 100 | > 100 | > 100
CCC1OC(=O)C(C)C(OC2CC(C)(OC)C(O)C(C)O2)C(C)C(OC2OC(C)CC([N+](CC)(CC)CC)C2O)C2(C)CC(C)=C(O2)C(C)C(O)C1(C)O (stereo not drawn) [Compound 23] | > 100 | > 100 | > 100 | > 100 | > 100 | > 100
CCC1OC(=O)C(C)C(OC2CC(C)(OC)C(O)C(C)O2)C(C)C(OC2OC(C)CC([N+]3(C)CCCCC3)C2O)C2(C)CC(C)=C(O2)C(C)C(O)C1(C)O (stereo not drawn) [Compound 25] | > 100 | > 100 | > 100 | > 100 | > 100 | > 100
C#CC[N+](C)(C)C1CC(C)OC(OC2C(C)C(OC3CC(C)(OC)C(O)C(C)O3)C(C)C(=O)OC(CC)C(C)(O)C(O)C(C)C3=C(C)CC2(C)O3)C1O (stereo not drawn) [Compound 27] | 100 | > 100 | 100 | 100 | 100 | > 100
CCC1OC(=O)C(C)C(OC2CC(C)(OC)C(O)C(C)O2)C(C)C(OC2OC(C)CC([N+](C)(C)CC(=O)OC)C2O)C2(C)CC(C)=C(O2)C(C)C(O)C1(C)O (stereo not drawn) [Compound 30] | > 100 | > 100 | > 100 | > 100 | > 100 | > 100
CCC1OC(=O)C(C)C(OC2CC(C)(OC)C(O)C(C)O2)C(C)C(OC2OC(C)CC([N+](C)(C)CC(=O)O)C2O)C2(C)CC(C)=C(O2)C(C)C(O)C1(C)O (stereo not drawn) [Compound 31] | > 100 | > 100 | > 100 | > 100 | > 100 | > 100
CCC1OC(=O)C(C)C(OC2CC(C)(OC)C(O)C(C)O2)C(C)C(OC2OC(C)CC([N+](C)(C)CCF)C2O)C2(C)CC(C)=C(O2)C(C)C(O)C1(C)O (stereo not drawn) [Compound 32] | > 100 | > 100 | > 100 | > 100 | > 100 | > 100
CCC1OC(=O)C(C)C(OC2CC(C)(OC)C(O)C(C)O2)C(C)C(OC2OC(C)CC([N+](C)(C)CC#N)C2O)C2(C)CC(C)=C(O2)C(C)C(O)C1(C)O (stereo not drawn) [Compound 33] | > 100 | > 100 | > 100 | > 100 | > 100 | > 100
C=CCN(C)C1CC(C)OC(OC2C(C)C(OC3CC(C)(OC)C(O)C(C)O3)C(C)C(=O)OC(CC)C(C)(O)C(O)C(C)C3=C(C)CC2(C)O3)C1O (stereo not drawn) [Compound 34] | > 100 | > 100 | > 100 | > 100 | > 100 | > 100
CCCN(C)C1CC(C)OC(OC2C(C)C(OC3CC(C)(OC)C(O)C(C)O3)C(C)C(=O)OC(CC)C(C)(O)C(O)C(C)C3=C(C)CC2(C)O3)C1O (stereo not drawn) [Compound 36] | > 100 | > 100 | > 100 | > 100 | > 100 | > 100

Other lines, results leading:

MIC [1] [µg/mL] | MIC [2] [µg/mL] | MIC [3] [µg/mL] | MIC [4] [µg/mL] | MIC [5] [µg/mL] | MIC [6] [µg/mL] | Compound
> 100 | > 100 | > 100 | > 100 | > 100 | > 100 | CCC1OC(=O)C(C)C(OC2CC(C)(OC)C(O)C(C)O2)C(C)C(OC2OC(C)CC(NC)C2O)C2(C)CC(C)=C(O2)C(C)C(O)C1(C)O (stereo not drawn) [Compound 8]
> 100 | > 100 | > 100 | > 100 | > 100 | > 100 | CCC1OC(=O)C(C)C(OC2CC(C)(OC)C(O)C(C)O2)C(C)C(OC2OC(C)CC([N+](C)(CC)CC)C2O)C2(C)CC(C)=C(O2)C(C)C(O)C1(C)O (stereo not drawn) [Compound 12]
> 100 | > 100 | > 100 | > 100 | > 100 | > 100 | CCC1OC(=O)C(C)C(OC2CC(C)(OC)C(O)C(C)O2)C(C)C(OC2OC(C)CC(N3CCCC3)C2O)C2(C)CC(C)=C(O2)C(C)C(O)C1(C)O (stereo not drawn) [Compound 13]
> 100 | > 100 | > 100 | > 100 | > 100 | > 100 | CCC1OC(=O)C(C)C(OC2CC(C)(OC)C(O)C(C)O2)C(C)C(OC2OC(C)CC([N+]3(C)CCCC3)C2O)C2(C)CC(C)=C(O2)C(C)C(O)C1(C)O (stereo not drawn) [Compound 14]
> 100 | > 100 | > 100 | > 100 | > 100 | > 100 | CCC1OC(=O)C(C)C(OC2CC(C)(OC)C(O)C(C)O2)C(C)C(OC2OC(C)CC(N(CC)CC)C2O)C2(C)CC(C)=C(O2)C(C)C(O)C1(C)O (stereo not drawn) [Compound 20]
> 100 | > 100 | > 100 | > 100 | > 100 | > 100 | CCC1OC(=O)C(C)C(OC2CC(C)(OC)C(O)C(C)O2)C(C)C(OC2OC(C)CC([N+]3(CC)CCCC3)C2O)C2(C)CC(C)=C(O2)C(C)C(O)C1(C)O (stereo not drawn) [Compound 24]
> 100 | > 100 | > 100 | > 100 | > 100 | > 100 | CCC1OC(=O)C(C)C(OC2CC(C)(OC)C(O)C(C)O2)C(C)C(OC2OC(C)CC([N+]3(CC)CCCCC3)C2O)C2(C)CC(C)=C(O2)C(C)C(O)C1(C)O (stereo not drawn) [Compound 26]
50 | > 100 | 50 | 50 | 50 | > 100 | C#CC[N+](C)(C)C1CC(C)OC(OC2C(C)C(OC3CC(C)(OC)C(O)C(C)O3)C(C)C(=O)OC(CC)C(C)(OC(C)=O)C(OC(C)=O)C(C)C3=C(C)CC2(C)O3)C1O (stereo not drawn) [Compound 28]
100 | > 100 | 100 | 100 | 50 | > 100 | CCC1OC(=O)C(C)C(OC2CC(C)(OC)C(O)C(C)O2)C(C)C(OC2OC(C)CC([N+](C)(C)CC)C2O)C2(C)CC(C)=C(O2)C(C)C(OC(C)=O)C1(C)OC(C)=O (stereo not drawn) [Compound 29]
> 100 | > 100 | > 100 | > 100 | > 100 | > 100 | C#CCN(C)C1CC(C)OC(OC2C(C)C(OC3CC(C)(OC)C(O)C(C)O3)C(C)C(=O)OC(CC)C(C)(O)C(O)C(C)C3=C(C)CC2(C)O3)C1O (stereo not drawn) [Compound 35]
